Laboratory results from article PMC10247784, “Physiological activation of human and mouse bitter taste receptors by bile acids” (Communications Biology, 2023).
Several values for one entry are separate records, joined by “and”; a condition that tells them apart may be missing. Identical values can stand only once.

Target: T1, human TAS2R1 (Homo sapiens, UniProt Q9NYW7)
T1 construct: expressed in transfected cells; host or cells: HEK293T-Gα16gust44
T1 sequence (Q9NYW7 1-299): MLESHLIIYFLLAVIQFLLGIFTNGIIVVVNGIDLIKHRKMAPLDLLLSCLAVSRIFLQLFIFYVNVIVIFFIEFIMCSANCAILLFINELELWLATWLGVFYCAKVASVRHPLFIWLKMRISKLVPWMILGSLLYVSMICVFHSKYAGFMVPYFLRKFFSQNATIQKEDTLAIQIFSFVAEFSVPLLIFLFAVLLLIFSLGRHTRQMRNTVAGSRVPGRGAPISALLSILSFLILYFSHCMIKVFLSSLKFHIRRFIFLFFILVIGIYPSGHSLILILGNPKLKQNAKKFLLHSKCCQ
Assay: Calcium imaging assay (FLIPR), HEK293T-Gα16gust44 cells transfected with human TAS2R1
Type: cell-based
Summary of the method: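 Calcium responses via FLIPR in receptor-transfected HEK293T-Gα16gust44 cells (Fluo-4-AM, 2.5 mM probenecid), after mock-signal subtraction and normalization to baseline and buffer (ΔF/F). Threshold concentration is the lowest dose differing from mock cells at p < 0.01 (Student's t-test), from three biological replicates in duplicate.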

Structure (SMILES): C[C@H](CCC(=O)O)[C@H]1CC[C@H]2[C@@H]3CC[C@@H]4C[C@H](O)CC[C@]4(C)[C@H]3CC[C@]12C [Lithocholic Acid, lithocholic acid]
- Efficacy = maximal amplitude (ΔF/F) (TAS2R1, bile acids, mean): 0.1221
- Efficacy (maximal amplitude ΔF/F), individual data points (TAS2R1, bile acids, single replicates, listed as LCA): 0.1505 and 0.1173 and 0.0984
- RLU (Time 0 s): 0 RLU
- RLU (Time 2.015 s): -14.5951 RLU
- RLU (Time 4.015 s): -7.128 RLU
- RLU (Time 6.015 s): 1.224 RLU
- RLU (Time 8.015 s): 0.3531 RLU
- RLU (Time 12.015 s): -16.4638 RLU
- RLU (Time 14.015 s): -4.132 RLU
- RLU (Time 16.015 s): -20.8125 RLU
- RLU (Time 18.015 s): 1.1121 RLU
- RLU (Time 18.796 s): 25.7864 RLU
- RLU (Time 20.796 s): 69.0707 RLU
- RLU (Time 22.796 s): 111.584 RLU
- RLU (Time 24.796 s): 140.624 RLU
- RLU (Time 26.796 s): 217.83 RLU
- RLU (Time 28.796 s): 298.948 RLU
- RLU (Time 30.796 s): 381.71 RLU
- RLU (Time 32.796 s): 449.564 RLU
- RLU (Time 34.796 s): 475.411 RLU
- RLU (Time 36.796 s): 563.041 RLU
- RLU (Time 38.796 s): 583.488 RLU
- RLU (Time 40.796 s): 612.54 RLU
- RLU (Time 42.796 s): 644.654 RLU
- RLU (Time 44.796 s): 679.197 RLU
- RLU (Time 46.796 s): 695.288 RLU
- RLU (Time 48.796 s): 701.461 RLU
- RLU (Time 50.796 s): 756.471 RLU
- RLU (Time 52.796 s): 734.503 RLU
- RLU (Time 54.796 s): 776.344 RLU
- RLU (Time 56.796 s): 818.875 RLU
- RLU (Time 58.796 s): 815.634 RLU
- RLU (Time 60.796 s): 814.863 RLU
- RLU (Time 62.796 s): 815.671 RLU
- RLU (Time 64.796 s): 814.539 RLU
- RLU (Time 66.796 s): 840.236 RLU
- RLU (Time 68.796 s): 839.926 RLU
- RLU (Time 70.796 s): 857.451 RLU
- RLU (Time 72.796 s): 860.887 RLU
- RLU (Time 74.796 s): 876.325 RLU
- RLU (Time 76.796 s): 873.737 RLU
- RLU (Time 78.796 s): 889.618 RLU
- RLU (Time 80.796 s): 892.644 RLU
- RLU (Time 82.796 s): 897.83 RLU
- RLU (Time 84.796 s): 886.895 RLU
- RLU (Time 86.796 s): 870.09 RLU
- RLU (Time 88.796 s): 907.185 RLU
- RLU (Time 90.796 s): 877.458 RLU
- RLU (Time 92.796 s): 891.158 RLU
- RLU (Time 94.796 s): 920.191 RLU
- RLU (Time 96.796 s): 905.406 RLU
- RLU (Time 98.796 s): 898.952 RLU
- RLU (Time 100.796 s): 892.147 RLU
- RLU (Time 102.796 s): 894.991 RLU
- RLU (Time 104.796 s): 894.373 RLU
- RLU (Time 106.796 s): 867.268 RLU
- RLU (Time 108.796 s): 872.524 RLU
- RLU (Time 110.796 s): 857.451 RLU
- RLU (Time 112.796 s): 864.824 RLU
- RLU (Time 114.796 s): 846.501 RLU
- RLU (Time 116.796 s): 868.556 RLU
- RLU (Time 118.796 s): 842.814 RLU
- RLU (Time 120.796 s): 851.852 RLU
- RLU (Time 122.796 s): 861.523 RLU
- RLU (Time 124.796 s): 851.498 RLU
- RLU (Time 126.796 s): 820.705 RLU
- RLU (Time 128.796 s): 833.006 RLU
- RLU (Time 130.796 s): 811.797 RLU
- RLU (Time 132.796 s): 786.781 RLU
- RLU (Time 134.796 s): 809.512 RLU
- RLU (Time 136.796 s): 797.52 RLU
- RLU (Time 137.562 s): 816.516 RLU
- RLU (Time 143.562 s): 785.521 RLU
- RLU (Time 149.562 s): 770.713 RLU
- RLU (Time 155.562 s): 645 RLU
- RLU (Time 161.562 s): 650.189 RLU
- RLU (Time 167.562 s): 602.288 RLU
- RLU (Time 173.562 s): 588.477 RLU
- RLU (Time 179.562 s): 570.66 RLU
- RLU (Time 185.562 s): 562.77 RLU
- RLU (Time 191.562 s): 515.911 RLU
- RLU (Time 197.562 s): 487.382 RLU
- RLU (Time 203.562 s): 468.151 RLU
- RLU (Time 209.562 s): 433.685 RLU
- RLU (Time 215.562 s): 406.858 RLU
- RLU (Time 221.562 s): 386.034 RLU
- RLU (Time 227.562 s): 427.313 RLU
- RLU (Time 233.562 s): 409.48 RLU
- RLU (Time 239.562 s): 419.888 RLU
- RLU (Time 245.562 s): 384.802 RLU
- RLU (Time 293.562 s): 250.547 RLU
- RLU (Time 299.562 s): 240.784 RLU
- RLU (calcium trace, sheet TAS2R1, Time 305.562 s): 255.305 RLU
- RLU (calcium trace, sheet TAS2R1, Time 311.562 s): 251.175 RLU
- RLU (calcium trace, sheet TAS2R1, Time 317.562 s): 242.237 RLU
- RLU (calcium trace, sheet TAS2R1, Time 323.562 s): 237.346 RLU
- RLU (calcium trace, sheet TAS2R1, Time 329.562 s): 210.072 RLU
- RLU (calcium trace, sheet TAS2R1, Time 335.562 s): 207.541 RLU
- RLU (calcium trace, sheet TAS2R1, Time 341.562 s): 224.802 RLU
- RLU (calcium trace, sheet TAS2R1, Time 347.562 s): 199.834 RLU
- RLU (calcium trace, sheet TAS2R1, Time 353.562 s): 189.761 RLU
- RLU (calcium trace, sheet TAS2R1, Time 359.562 s): 182.753 RLU
- Activation threshold concentration TAS2R1 (lowest concentration with significantly increased fluorescence vs empty vector (p < 0.01)): 0.3 µM and 0.30 µM
